In general, Ki refers to a measure of affinity in units of concentration, obtained from inhibition or displacement.

The test deals with T1, soluble epoxide hydrolase (sEH) (Homo sapiens, UniProt P34913).
T1 construct: gene EPHX2
T1 sequence (P34913 1-555): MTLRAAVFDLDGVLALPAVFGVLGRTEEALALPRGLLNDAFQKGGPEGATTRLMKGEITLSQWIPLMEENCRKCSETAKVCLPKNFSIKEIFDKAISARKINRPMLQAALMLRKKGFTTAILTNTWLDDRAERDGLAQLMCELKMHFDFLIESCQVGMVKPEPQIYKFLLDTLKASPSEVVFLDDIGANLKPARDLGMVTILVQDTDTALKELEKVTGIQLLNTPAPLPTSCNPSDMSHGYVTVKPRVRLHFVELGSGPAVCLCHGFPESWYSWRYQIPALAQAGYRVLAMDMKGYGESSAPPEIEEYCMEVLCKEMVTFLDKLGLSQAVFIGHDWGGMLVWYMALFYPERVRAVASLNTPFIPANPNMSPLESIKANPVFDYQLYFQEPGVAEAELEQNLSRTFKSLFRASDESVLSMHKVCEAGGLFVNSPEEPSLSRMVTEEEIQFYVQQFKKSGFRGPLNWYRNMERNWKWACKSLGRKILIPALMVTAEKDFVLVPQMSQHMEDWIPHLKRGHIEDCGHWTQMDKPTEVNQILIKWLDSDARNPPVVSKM
The experiment in a line: fluorescent PHOME hydrolysis assay with recombinant sEH; Lineweaver–Burk and Dixon plots. The class given is biochemical.

On to `CC1(C)Oc2ccc3ccc(=O)oc3c2[C@H](O)[C@@H]1O` [compound 1, (−)cis-Khellactone], for which the Ki amounted to 3.5 µM.

The record behind these values is paper PMC10610198, “Inhibitory Activity of Natural cis-Khellactone on Soluble Epoxide Hydrolase and Proinflammatory Cytokine Production in Lipopolysaccharides-Stimulated RAW264.7 Cells” (Plants, 2023).
